Source: patent publication US6737038B1, “Use of small molecule radioligands to discover inhibitors of amyloid-beta peptide production and for diagnostic imaging” (Bristol-Myers Squibb Company, priority 1998, dated 2004)

Key:
[1] = target: membrane binding site of Example 7; assay: Radioligand Competition Binding Assay (RCB Assay)
[2] = test system: HEK293 cells expressing APP 695 wt; assay: Aβ production in HEK293 cells expressing APP 695 wt, compared with I-7T binding to membranes of the same cell line; format: cell-based
Excerpt: The concentration of Compound (I-7) leading to half-maximal inhibition (IC50) of proteolytic activity leading to Aβ production in HEK293 cells expressing APP 695 wt is similar to the concentration leading to half-maximal inhibition (IC50) of Compound (I-7T) binding to membranes derived from the same cell line. […] Also using a compound of Formula (I), we have discovered a macromolecule containing a binding site of action for compounds of Formula (I) critical to the processing of APP and the production of Aβ.
bind specifically to a binding site on a macromolecule or a complex of macromolecules involved in APP processing to produce reduction of Aβ peptide production. For example, the concentration of Compound (I-7) leading to half-maximal inhibition (IC50) of Aβ production in HEK293 cells expressing APP 695 wt is similar to the concentration leading to half-maximal inhibition (IC50) of Compound (I-7T) binding to membranes derived from the same cell line.

presenilin 1 = target: T1, presenilin 1 (Homo sapiens, UniProt P49768); assay: immunoprecipitation of cross-linked polypeptides with antibodies to presenilin 1; format: binding; details: THP-1 membranes, Example 43T 30 nM plus competing compound
T1 construct: endogenous in cells; host or cells: THP-1 cell membranes
Protocol: The membranes were collected by centrifugation. The membranes were extracted with 50 mM Tris, pH 7.5 containing 100 mM KCl, 2 mM EDTA, 2% CHAPS and 1 complete protease inhibitor tablet per 25 ml buffer (COMPLETE™, Boehringer Mannheim; product number 1697 498)) for 1 hour at 4° C. The detergent soluble fraction was recovered by centrifugation (40,000 g, 30 min, 4° C.). The membrane extract was diluted one half with water. 500 ul of the membrane extract were pre-incubated with 10 ul of normal mouse IgG and 50 ul anti-mouse IgG Sepharose (Sigma) for 1 hour at 4° C. The supernatant was recovered by centrifugation. Subsequently, 10 ug of preimmune IgG (Sigma) or 10 ug of a monoclonal antibody to presenilin 1 was added in the presence of 50 ul anti-mouse IgG Sepharose. Examples of commercially available antibodies to presenilin 1 are Chemicon International: rat anti-human Presenilin 1 monoclonal antibody; product number MAB 1563; or Santa Cruz Biotechnology: goat anti Presenilin 1; product number SC-1244; or Santa Cruz Biotechnology: goat anti Presenilin 1; product number SC-1245. […] Radioactivity bound to the Sepharose beads was dissociated by boiling in SDS sample buffer (4×) containing 50 mM dithiothreitol. […]

Q: `CCC[C@H](C(N)=O)[C@@H](CC(C)C)C(=O)N[C@H]1CCCCN(Cc2cccc(C(=O)c3ccccc3)c2)C1=O` [Example 11] was tested. Which “IC50 in β APPA Assay versus RCB Assay with Example 7T as radiolabeled standard” value [1] did it give?
A: statistically significant correlation of IC50 values

Q: And the “apparent Ki: RCB Assay conducted with Example 7T versus Example 11T” value [1]?
A: statistically significant correlation

Q: And the “cross-linking to the membrane binding site” value ([1]; THP-1 membranes, photolysis at 365 nm)?
A: cross-linked to the membrane binding site of Example 7

Q: Which “apparent Ki: RCB Assay conducted with Example 7T versus Example 11T” value [1] does the source give for `CCC[C@H](C(N)=O)[C@@H](CC(C)C)C(=O)N[C@H]1CCCCN(Cc2cccc(Oc3ccccc3)c2)C1=O` [Example 7, (2R,3S) N1-[(3S)-Hexahydro-1-(3-phenoxybenzyl)-2-oxo-1H-azepin-3-yl]-2-(2-methylpropyl)-3-(propyl)-butanediamide] here?
A: statistically significant correlation

Q: And the “IC50 of Aβ production compared with IC50 of Compound (I-7T) binding to membranes from the same cell line” value [2]?
A: similar

Q: Which results are given for `CC(NC(=O)Cc1cc(F)cc(F)c1)C(=O)NC1N=C(c2ccccc2)c2ccccc2N(C)C1=O` (stereo not shown) [Example 98, reference compound]?
A: apparent Ki: RCB Assay conducted with Example 7T versus Example 11T [1]: statistically significant correlation; competition of cross-linking / immunoprecipitation of labeled bands (FIG. 2) (presenilin 1): not in the presence of Example 98

Q: With “Tritiated (2S,3R) N1-[1,3-Dihydro-1-methyl-2-oxo-5-(phenyl)-2H-1,4-benzodiazepin-3-yl]-2-(2-methylpropyl)-3-(n-propyl)-butanediamide [Example 43T]” as the compound, how does the “equivalency to Example 7T as radioactive tracer in the RCB Assay” value [1] read?
A: can be used instead of Example 7T

Q: What about the “IC50 of Aβ production compared with IC50 of Compound (I-7T) binding to membranes from the same cell line” value [2] of the same compound?
A: correlation holds

Q: With `CC(C)C[C@H](CC(N)=O)C(=O)N[C@H]1CCCCN(Cc2cccc(Oc3ccccc3)c2)C1=O` [Example 99] as the compound, how does the “apparent Ki: RCB Assay conducted with Example 7T versus Example 11T” value [1] read?
A: statistically significant correlation
